In ChEMBL document CHEMBL4342437, “Development and structure-activity relationship study of SHP2 inhibitor containing 3,4,6-trihydroxy-5-oxo-5H-benzo[7]annulene” (Bioorg Med Chem Lett, 2020):
Active and inactive are the calls of the source. The rule behind the calls is not given here.

Assays:
[1] = target: T1, Tyrosine-protein phosphatase non-receptor type 11 (Homo sapiens, UniProt Q06124); experiment: Inhibition of recombinant human SHP2 expressed in Escherichia coli using 2P-IRS1 peptide as substrate after 1 hr by microplate reader analysis
T1 sequence (Q06124 whole entry): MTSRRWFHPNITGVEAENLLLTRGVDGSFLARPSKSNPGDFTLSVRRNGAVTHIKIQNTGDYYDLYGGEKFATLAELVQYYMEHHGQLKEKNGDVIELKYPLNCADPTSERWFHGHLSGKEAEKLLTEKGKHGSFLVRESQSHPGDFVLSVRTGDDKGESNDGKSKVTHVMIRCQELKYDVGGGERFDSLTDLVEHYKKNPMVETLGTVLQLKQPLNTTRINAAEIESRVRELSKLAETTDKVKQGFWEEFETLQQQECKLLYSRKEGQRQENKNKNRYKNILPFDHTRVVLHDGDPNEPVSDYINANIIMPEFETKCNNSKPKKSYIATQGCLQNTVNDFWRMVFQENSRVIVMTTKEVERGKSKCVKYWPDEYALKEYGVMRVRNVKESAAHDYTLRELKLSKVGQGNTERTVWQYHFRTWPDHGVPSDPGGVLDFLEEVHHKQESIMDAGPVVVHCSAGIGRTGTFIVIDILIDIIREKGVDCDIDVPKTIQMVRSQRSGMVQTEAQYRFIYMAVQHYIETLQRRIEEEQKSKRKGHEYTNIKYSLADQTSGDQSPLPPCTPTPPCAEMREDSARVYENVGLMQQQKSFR

[2] = target: T2, Tyrosine-protein phosphatase non-receptor type 11 (Homo sapiens) (UniProt Q06124); experiment: Inhibition of recombinant human SHP2 expressed in Escherichia coli using 2P-IRS1 peptide as substrate at 1 uM after 1 hr by microplate reader analysis relative to control
T2 sequence (whole entry): T1 sequence (Q06124 whole entry)

[3] = target: T2, Tyrosine-protein phosphatase non-receptor type 11 (Homo sapiens); experiment: Non-competitive inhibition of recombinant human SHP2 expressed in Escherichia coli using 2P-IRS1 peptide as substrate up to 200 uM after 1 hr by Lineweaver-Burk plot analysis
MDA-MB-468 [4] = experiment: Antiproliferative activity against human MDA-MB-468 cells assessed as reduction in cell viability after 2 to 4 days by CCK-8 assay; type: functional, cell-based
MDA-MB-468 [5] = experiment: Antiproliferative activity against SHP2 knockout human MDA-MB-468 cells with assessed as increase in cell viability at 100 uM after 2 to 4 days by CCK-8 assay relative to MDA-MB-468 cells expressing SHP2; type: functional
MDA-MB-468 [6] = experiment: Potency index, ratio of SHP099 IC50 to compound IC50 for antiproliferative activity against human MDA-MB-468 cells after 2 to 4 days by CCK-8 assay; type: functional
MDA-MB-468 [7] = experiment: Antiproliferative activity against human MDA-MB-468 3D spheroids assessed as reduction in cell viability at 20 uM after 2 to 4 days by CCK-8 assay relative to control; type: functional
MDA-MB-468 [8] = experiment: Antiproliferative activity against human MDA-MB-468 3D spheroids assessed as reduction in cell viability after 2 to 4 days by CCK-8 assay; type: functional, cell-based

Row | IC50 [1] | inhibition [2] | SMILES | other results
1 | 0.949 µM | 52% | NC(=O)c1cc(O)c(=O)c2c(O)c(O)c(F)cc2c1 | 
2 | 1.57 µM | 29% | O=c1c(O)cc(-c2nc(CCl)co2)cc2ccc(O)c(O)c12 | 
3 | 4.87 µM | 2% | CC(C)OC(=O)c1cc(O)c(=O)c2c(O)c(O)ccc2c1 | 
4 | 8.66 µM | 6% | COC(=O)c1cc(O)c(=O)c2c(O)c(O)c(OC)cc2c1 | 
5 |  | 0% | COc1ccc2cc(C(=O)O)cc(OC)c(=O)c2c1OC | 
6 | 0.097 µM | 93% | O=C(O)c1cc(O)c(=O)c2c(O)c(O)ccc2c1 [7-DESHYDROXYPYROGALLIN-4-CARBOXYLIC ACID] | inhibition [3]: Active; IC50 (MDA-MB-468 [4]): 5.3 µM; fold change (FC) (MDA-MB-468 [5]): 19.3; Ratio IC50 (MDA-MB-468 [6]): 5.6; Activity (MDA-MB-468 [7]): 35.7%; IC50 (MDA-MB-468 [8]): 35.8 µM
7 |  | 0% | COc1cc2cc(C(N)=O)cc(O)c(=O)c2c(O)c1O | 
8 | 7.55 µM | 12% | COC(=O)c1cc(O)c(=O)c2c(O)c(O)c(F)cc2c1 | 
9 |  | 0% | O=c1c(O)cccc2ccc(O)c(O)c12 | 
10 | 0.985 µM | 50% | CCOC(=O)c1cc(O)c(=O)c2c(O)c(O)ccc2c1 | 
11 |  | 0% | COC(=O)c1cc(OC)c(=O)c2c(OC)c(OC)ccc2c1 | 
12 | 0.277 µM | 90% | O=C(O)c1cc(O)c(=O)c2c(O)c(O)c(F)cc2c1 | IC50 (MDA-MB-468 [4]): 71 µM; fold change (FC) (MDA-MB-468 [5]): 16.3; Activity (MDA-MB-468 [7]): 37.2%; IC50 (MDA-MB-468 [8]): 39.2 µM
13 | 0.161 µM | 87% | COC(=O)c1cc(O)c(=O)c2c(O)c(O)ccc2c1 [METHYL 7-DESHYDROXYPYROGALLIN-4-CARBOXYLATE] | IC50 (MDA-MB-468 [4]): 4.6 µM; fold change (FC) (MDA-MB-468 [5]): 3; Activity (MDA-MB-468 [7]): 27.5%; IC50 (MDA-MB-468 [8]): 62.9 µM
14 | 6.54 µM | 19% | CCOC(=O)c1cc(O)c(=O)c2c(O)c(O)c(F)cc2c1 | 
15 | 4.11 µM | 13% | NC(=O)c1cc(O)c(=O)c2c(O)c(O)ccc2c1 | 
16 |  |  | CC1(N)CCN(c2cnc(-c3cccc(Cl)c3Cl)c(N)n2)CC1 | IC50 (MDA-MB-468 [4]): 29.9 µM; IC50 (MDA-MB-468 [8]): 49.6 µM
17 | 1.23 µM | 40% | N#Cc1cc(O)c(=O)c2c(O)c(O)ccc2c1 | 
18 | 7.74 µM | 0.47% | CC(C)OC(=O)c1cc(O)c(=O)c2c(O)c(O)c(F)cc2c1 | 
